Measured values from ChEMBL document CHEMBL3885881, “DrugMatrix”.

What was measured:
Rattus norvegicus [1] = organism: Rattus norvegicus; format: toxicity, organism-based, Sprague-Dawley; conditions: in vivo, po, 60 mg/kg, 24 h, route oral GAVAGE, dose level High, time 1 day, vehicle 100 % WATER
Description: DrugMatrix - Regimen: Single

Rattus norvegicus [2] = organism: Rattus norvegicus; experiment: DrugMatrix - Regimen: Daily Repeat; format: toxicity, organism-based, Sprague-Dawley; parameters: regimen Daily Repeat, gender Male, age 6-8 weeks; conditions: in vivo, po, 60 mg/kg, 72 h, route oral GAVAGE, dose level High, time 3 day, vehicle 100 % WATER

Nc1ccc(O)c(N)c1 [2,4-DIAMINOPHENOL]
ABSOLUTE EOSINOPHIL (Rattus norvegicus [1]; tissue Blood): 80.67 CELLS/uL | ABSOLUTE LYMPHOCYTE (Rattus norvegicus [1]; tissue Blood): 10585.67 CELLS/uL | ABSOLUTE MONOCYTE (Rattus norvegicus [1]; tissue Blood): 630.67 CELLS/uL | ABSOLUTE SEGMENTED NEUTROPHIL (Rattus norvegicus [1]; tissue Blood): 1169.67 CELLS/uL | BASOPHIL (Rattus norvegicus [1]; tissue Blood): 0% | EOSINOPHIL (Rattus norvegicus [1]; tissue Blood): 0.67% | ERYTHROCYTE COUNT (Rattus norvegicus [1]; tissue Blood): 4.98 x10E6/uL | HEMATOCRIT (Rattus norvegicus [1]; tissue Blood): 31.37% | HEMOGLOBIN (Rattus norvegicus [1]; tissue Blood): 11.7 G/DL | LEUKOCYTE COUNT (Rattus norvegicus [1]; tissue Blood): 12.47 x10E3/uL | LYMPHOCYTE (Rattus norvegicus [1]; tissue Blood): 85% | MEAN CORPUSCULAR HEMOGLOBIN (Rattus norvegicus [1]; tissue Blood): 23.63 pg | MEAN CORPUSCULAR HEMOGLOBIN CONCENTRATION (Rattus norvegicus [1]; tissue Blood): 37.37 G/DL | MEAN CORPUSCULAR VOLUME (Rattus norvegicus [1]; tissue Blood): 63.17 fL | MONOCYTE (Rattus norvegicus [1]; tissue Blood): 5% | NEUTROPHIL (Rattus norvegicus [1]; tissue Blood): 9.33% | NUCLEATED RED BLOOD CELLS (Rattus norvegicus [1]; tissue Blood): 0 /100WBC | PLATELET COUNT (Rattus norvegicus [1]; tissue Blood): 963 x10E3/uL | ALANINE AMINOTRANSFERASE (Rattus norvegicus [1]; tissue Plasma): 60.67 u/L | ALBUMIN (Rattus norvegicus [1]; tissue Plasma): 4.43 G/DL | ALKALINE PHOSPHATASE (Rattus norvegicus [1]; tissue Plasma): 366.33 u/L | ASPARTATE AMINOTRANSFERASE (Rattus norvegicus [1]; tissue Plasma): 78.33 u/L | BLOOD UREA NITROGEN (Rattus norvegicus [1]; tissue Plasma): 12 mg/dL | CARBON DIOXIDE (Rattus norvegicus [1]; tissue Plasma): 27 mmol/L | CHLORIDE (Rattus norvegicus [1]; tissue Plasma): 103.33 MEQ/L | CHOLESTEROL (Rattus norvegicus [1]; tissue Plasma): 77.33 mg/dL | CREATININE (Rattus norvegicus [1]; tissue Plasma): 0.13 mg/dL | GLUCOSE (Rattus norvegicus [1]; tissue Plasma): 149 mg/dL | LACTATE DEHYDROGENASE (Rattus norvegicus [1]; tissue Plasma): 159 u/L | LIPASE (Rattus norvegicus [1]; tissue Plasma): 8 u/L | PHOSPHORUS (Rattus norvegicus [1]; tissue Plasma): 12.77 mg/dL | POTASSIUM (Rattus norvegicus [1]; tissue Plasma): 6.85 MEQ/L | SODIUM (Rattus norvegicus [1]; tissue Plasma): 145.33 MEQ/L | TOTAL BILIRUBIN (Rattus norvegicus [1]; tissue Plasma): 0.1 mg/dL | TOTAL PROTEIN (Rattus norvegicus [1]; tissue Plasma): 6 G/DL | URIC ACID (Rattus norvegicus [1]; tissue Plasma): 1.37 mg/dL | ABSOLUTE BASOPHIL (Rattus norvegicus [2]; tissue Blood): 0 CELLS/uL | ABSOLUTE EOSINOPHIL (Rattus norvegicus [2]; tissue Blood): 193.67 CELLS/uL | ABSOLUTE LYMPHOCYTE (Rattus norvegicus [2]; tissue Blood): 11960 CELLS/uL | ABSOLUTE MONOCYTE (Rattus norvegicus [2]; tissue Blood): 874.33 CELLS/uL | ABSOLUTE SEGMENTED NEUTROPHIL (Rattus norvegicus [2]; tissue Blood): 1505.33 CELLS/uL | BASOPHIL (Rattus norvegicus [2]; tissue Blood): 0% | EOSINOPHIL (Rattus norvegicus [2]; tissue Blood): 1.33% | ERYTHROCYTE COUNT (Rattus norvegicus [2]; tissue Blood): 5.59 x10E6/uL | HEMATOCRIT (Rattus norvegicus [2]; tissue Blood): 34.17% | HEMOGLOBIN (Rattus norvegicus [2]; tissue Blood): 12.63 G/DL | LEUKOCYTE COUNT (Rattus norvegicus [2]; tissue Blood): 14.53 x10E3/uL | LYMPHOCYTE (Rattus norvegicus [2]; tissue Blood): 82.33% | MEAN CORPUSCULAR HEMOGLOBIN (Rattus norvegicus [2]; tissue Blood): 22.6 pg | MEAN CORPUSCULAR HEMOGLOBIN CONCENTRATION (Rattus norvegicus [2]; tissue Blood): 36.97 G/DL | MEAN CORPUSCULAR VOLUME (Rattus norvegicus [2]; tissue Blood): 61.1 fL | MONOCYTE (Rattus norvegicus [2]; tissue Blood): 6% | NEUTROPHIL (Rattus norvegicus [2]; tissue Blood): 10.33% | NUCLEATED RED BLOOD CELLS (Rattus norvegicus [2]; tissue Blood): 0 /100WBC | PLATELET COUNT (Rattus norvegicus [2]; tissue Blood): 1050 x10E3/uL | ALANINE AMINOTRANSFERASE (Rattus norvegicus [2]; tissue Plasma): 72 u/L | ALBUMIN (Rattus norvegicus [2]; tissue Plasma): 4.43 G/DL | ALKALINE PHOSPHATASE (Rattus norvegicus [2]; tissue Plasma): 400.67 u/L | ASPARTATE AMINOTRANSFERASE (Rattus norvegicus [2]; tissue Plasma): 94 u/L | BLOOD UREA NITROGEN (Rattus norvegicus [2]; tissue Plasma): 17.67 mg/dL | CARBON DIOXIDE (Rattus norvegicus [2]; tissue Plasma): 23.33 mmol/L | CHLORIDE (Rattus norvegicus [2]; tissue Plasma): 102.67 MEQ/L | CHOLESTEROL (Rattus norvegicus [2]; tissue Plasma): 68 mg/dL | CREATININE (Rattus norvegicus [2]; tissue Plasma): 0.19 mg/dL | GLUCOSE (Rattus norvegicus [2]; tissue Plasma): 165 mg/dL | LACTATE DEHYDROGENASE (Rattus norvegicus [2]; tissue Plasma): 314.67 u/L | LIPASE (Rattus norvegicus [2]; tissue Plasma): 8.33 u/L | PHOSPHORUS (Rattus norvegicus [2]; tissue Plasma): 12.5 mg/dL | POTASSIUM (Rattus norvegicus [2]; tissue Plasma): 6.48 MEQ/L | SODIUM (Rattus norvegicus [2]; tissue Plasma): 144.2 MEQ/L | TOTAL BILIRUBIN (Rattus norvegicus [2]; tissue Plasma): 0.23 mg/dL | TOTAL PROTEIN (Rattus norvegicus [2]; tissue Plasma): 6 G/DL | URIC ACID (Rattus norvegicus [2]; tissue Plasma): 1.63 mg/dL
